Measurements reported in publication PMC8115619, “Generation of a chemical genetic model for JAK3” (Scientific Reports, 2021).

Tests used:
[1] = tested on: IL-4 induced STAT6 phosphorylation in wild type BMDMs; test: IL-4 induced STAT6 phosphorylation in wild type BMDMs (immunoblot); type: cell-based; settings: Mus musculus, BMDM, 0.5 h; 10 ng/ml IL-4 30 min, pSTAT6 Tyr641 immunoblot, two independent experiments
Procedure: (§1) Figure 3 Effect of JAK3 inhibitors on IL-4 induced STAT6 phosphorylation. BMDMs were isolated from wild type and JAK3 Cys905Ser knockin mice. Cells were incubated with the indicated concentrations of inhibitor before stimulation for 30 min with 10 ng/ml IL-4. Cells were lysed and the levels of STAT6 phosphorylated at Tyr641 were assessed by immunoblotting. Levels of ERK1/2 were determined as a loading control.
(§2) Bone marrow derived macrophages (BMDMs) were cultured as described. Briefly, bone marrow was flushed in PBS from the femurs and tibias of mice. Cells were cultured on bacterial grade plastic for 7 days at 37 °C, 5% CO2. Cells were then detached using Versene (Gibco), re-plated on tissue culture plastic in BMDM media (in DMEM supplemented with 10% heat inactivated FBS (Labtech), 2 mM L-glutamine, 100 U/ml penicillin G, 100 μg/ml streptomycin and 0.25 μg/ml amphotericin, 5 ng/ml M-CSF) and used within 48 h. Where indicated cells were stimulated with 10 ng/ml IL-4, 10 ng/ml GM-CSF, 10 ng/ml IL-10 or 10 ng/ml IFNβ. All cytokines were from PeproTech.
(§3) Cells were lysed directly into SDS sample buffer and aliquots run on 10% polyacrylamide gels using standard methods. Proteins were transferred onto nitrocellulose membranes, and specific proteins were detected by immunoblotting. Antibodies against tyrosine phosphorylated STATs were from Cell Signaling Technology (phospho-STAT1 #9167, phospho-STAT3 #9131, phospho-STAT5 #4322 and phospho-STAT6 #9361). The total ERK1/2 antibody used as a loading control was also from cell Signaling Technology (#4695). HRP-conjugated secondary antibodies were obtained from Pierce. Bands were detected using Clarity ECL reagents from BioRad and imaged on a Licor Odyssey Fc system. Quantification was carried out using Licor Image Studio software. After correction for the ERK1/2 levels to account for loading differences, percentage inhibition was calculated relative to the IL-4 stimulated condition. IC50 values were calculated using the same methods as for the in vitro IC50 values.

[2] = tested on: IL-4 induced STAT6 phosphorylation in BMDMs from JAK3 Cys905Ser knockin mice; test: IL-4 induced STAT6 phosphorylation in JAK3 Cys905Ser knockin BMDMs (immunoblot); type: cell-based, mouse; settings: Mus musculus, BMDM, 0.5 h; 10 ng/ml IL-4 30 min, pSTAT6 Tyr641 immunoblot, two independent experiments
Procedure: as §1, §2, §3

[3] = tested on: IL-4 induced STAT6 phosphorylation in wild type BMDMs; test: Inhibitor washout, IL-4 induced STAT6 phosphorylation, wild type BMDMs; type: cell-based, mouse; settings: inhibitor 2 h, 0.5 μM Ruxolitinib
Procedure: Covalent inhibitors would be predicted to have very slow off rates and therefore inhibition should remain even if the unbound inhibitors are washed out of the cells. To test this, cells were treated with a high concentration of inhibitor for 2 h before being washed 3 times in PBS and then incubated in media without inhibitor for 0.5 to 24 h. If the inhibitor acts via a non-covalent mechanism, inhibition would not be expected to remain following washout from the cells. Ruxolitinib is a non-covalent pan-JAK inhibitor that can inhibit multiple JAK-STAT pathways in macrophages. […] To confirm this was not the case, similar experiments were done in JAK3 Cys905Ser knockin cells. […] Similar experiments were also carried out with PF-06651600. […] As the level of inhibition was lower at 2 h post washout than 30 min the experiment was repeated to look at 4 and 24 h time points for the washout step.
Figure 4 Effect of inhibitor washout on JAK3 inhibition. BMDMs were isolated from wild type and JAK3 Cys905Ser knockin mice. […] The macrophages were then either stimulated with 10 ng/ml IL-4 for 30 min or washed 3 times in PBS and then incubated in media without inhibitor for the indicated times. The cells were then stimulated with IL-4 for 30 min and STAT6 phosphorylation determined by immunoblotting using levels of ERK1/2 as a loading control.
as §2, §3

CN(C)C(=O)/C(C#N)=C/c1ccc(-c2nc3cnc4[nH]ccc4c3n2C2CCCCC2)o1 [FM-381, reference compound]
IC50 [1]: 180 nM
IC50 [2]: 890 nM

N#CC[C@H](C1CCCC1)n1cc(-c2ncnc3[nH]ccc23)cn1 [Ruxolitinib]
block of IL-4 induced STAT6 phosphorylation without washout, wild type BMDMs ([3]; no washout, 10 μM TL6-144): completely block
inhibition of IL-4 induced STAT6 phosphorylation after inhibitor washout, wild type BMDMs ([3]; washed 3 times in PBS, IL-4 30 min to 2 h after washout, 10 μM TL6-144, 100 μM PF-06651600): completely lost
